According to patent US11299510B2, “Substituted pyridopyrrolopyrimidine ribonucleosides for therapeutic uses” (USTAV ORGANICKE CHEMIE A BIOCHEMIE AV CR, V.V.I., priority 2018, dated 2022):

Assays:
Assay type in all cases: cell-based
[1] = test system: K562 (human acute myeloid leukemia); test: cytotoxic MTS test, K562; conditions: K562 cells
Description: (§1) To evaluate the antitumor activity of newly prepared compounds for in vitro conditions, we used cytotoxic MTS test (Nosková V. et al., Neoplasma 2002, 49, 418-425) on cell lines derived from normal tissues or tumors. Specifically, cell lines K562 (human acute myeloid leukemia); K562-Tax (human acute myeloid leukemia, paclitaxel resistant subline, overexpress multiple drug resistant protein PgP); CEM (T-lymfoblastic leukemia); CEM-DNR-bulk (T-lymfoblastic leukemia, doxorubicin resistant); A549 (human lung adenocarcinoma); HCT116p53 wt (human colorectal cancer, wild-type); HCT116p53−/−(human colorectal cancer, mutant p53) a U2OS (human bone osteosarcoma) were used. Express characteristics, susceptibility profiles of classic antitumor drugs as well as methodology of cytotoxic MTS test have been repeatedly published (Denizot, F.; Lang, R., J. Immunol. Meth. 1986, 89, 271-277; Noskova, V., see above; Šarek J. et al., J, Med. Chem., 2003, 46, 5402-5415).

[2] = test system: K562-Tax (human acute myeloid leukemia, paclitaxel resistant subline); test: cytotoxic MTS test, K562-TAX; conditions: K562-TAX cells
Description: as §1

[3] = test system: BJ (normal human fibroblasts); test: cytotoxic MTS test, BJ; conditions: BJ cells
[4] = test system: A549 (human lung adenocarcinoma); test: cytotoxic MTS test, A549; conditions: A549 cells
Description: as §1

CCRF-CEM = test: cytotoxic MTS test, CCRF-CEM; conditions: Homo sapiens; CCRF-CEM cells
Description: as §1

[5] = test system: CEM-DNR-bulk (T-lymfoblastic leukemia, doxorubicin resistant); test: cytotoxic MTS test, CEM-DNR; conditions: Homo sapiens; CEM-DNR cells
Description: as §1

HL 60 = test: cytotoxic MTS test, HL 60; conditions: Homo sapiens; HL 60 cells
[6] = test system: HCT116p53−/− (human colorectal cancer, mutant p53); test: cytotoxic MTS test, HCT116p53; conditions: HCT116p53 cells
Description: as §1

HeLa = test: cytotoxic MTS test, HeLa; conditions: Homo sapiens; HeLa cells
[7] = test system: U2OS (human bone osteosarcoma); test: cytotoxic MTS test, U2OS; conditions: U2OS cells
Description: as §1

[8] = test system: MRC-5 (normal human fibroblasts); test: cytotoxic MTS test, MRC-5; conditions: MRC5, MRC-5 cells
Hep G2 = test: cytotoxic MTS test, Hep G2; conditions: Homo sapiens, HepG2; Hep G2 cells
[9] = test system: CEM (T-lymfoblastic leukemia); test: cytotoxic MTS test, CEM; conditions: Homo sapiens, CCRF-CEM; CEM cells
Description: as §1

[10] = test system: HCT116p53 wt (human colorectal cancer, wild-type); test: cytotoxic MTS test, HCT116; conditions: HCT-116, HCT116 cells
Description: as §1

Measured: IC50

COc1ncnc2c1c1ncccc1n2[C@@H]1O[C@H](CO)[C@@H](O)[C@H]1O [Compound 1a, 4-methoxy-9-(β-D-ribofuranosyl)-9H-pyrido[2′,3′:4,5]pyrrolo[2,3-d]pyrimidine]
> 50 µM: all assays above

OC[C@H]1O[C@@H](n2c3cccnc3c3c(-c4ccoc4)ncnc32)[C@H](O)[C@@H]1O [Compound 1g, 4-(furan-3-yl)-9-(β-D-ribofuranosyl)-9H-pyrido[2′,3′:4,5]pyrrolo[2,3-d]pyrimidine]
> 50 µM: all assays above

CSc1ncnc2c1c1ncccc1n2[C@@H]1O[C@H](CO)[C@@H](O)[C@H]1O [Compound 1b, 4-(methylsulfanyl)-9-(β-D-ribofuranosyl)-9H-pyrido[2′,3′:4,5]pyrrolo[2,3-d]pyrimidine]
> 50 µM: all assays above

OC[C@H]1O[C@@H](n2c3cccnc3c3c(-c4ccsc4)ncnc32)[C@H](O)[C@@H]1O [Compound 1h, 4-(thiophen-3-yl)-9-(β-D-ribofuranosyl)-9H-pyrido[2′,3′:4,5]pyrrolo[2,3-d]pyrimidine]
> 50 µM: all assays above
